Measurements published in paper PMC12615753, “Glutathione as a taste modulator: molecular mechanisms of interaction with umami and sweet taste receptors” (Food Chemistry: Molecular Sciences, 2025).

Target: T1, hTAS1R1 A170W/rTAS1R3 (UniProt Q7RTX1+Q923K1, A170W)
T1 construct: The cDNA coding region of rTAS1R3 was synthesized with optimized-codon usage for human expression; expressed in transfected cells; host or cells: HEK293T/17
T1 sequence (Q7RTX1 21-841 A170W): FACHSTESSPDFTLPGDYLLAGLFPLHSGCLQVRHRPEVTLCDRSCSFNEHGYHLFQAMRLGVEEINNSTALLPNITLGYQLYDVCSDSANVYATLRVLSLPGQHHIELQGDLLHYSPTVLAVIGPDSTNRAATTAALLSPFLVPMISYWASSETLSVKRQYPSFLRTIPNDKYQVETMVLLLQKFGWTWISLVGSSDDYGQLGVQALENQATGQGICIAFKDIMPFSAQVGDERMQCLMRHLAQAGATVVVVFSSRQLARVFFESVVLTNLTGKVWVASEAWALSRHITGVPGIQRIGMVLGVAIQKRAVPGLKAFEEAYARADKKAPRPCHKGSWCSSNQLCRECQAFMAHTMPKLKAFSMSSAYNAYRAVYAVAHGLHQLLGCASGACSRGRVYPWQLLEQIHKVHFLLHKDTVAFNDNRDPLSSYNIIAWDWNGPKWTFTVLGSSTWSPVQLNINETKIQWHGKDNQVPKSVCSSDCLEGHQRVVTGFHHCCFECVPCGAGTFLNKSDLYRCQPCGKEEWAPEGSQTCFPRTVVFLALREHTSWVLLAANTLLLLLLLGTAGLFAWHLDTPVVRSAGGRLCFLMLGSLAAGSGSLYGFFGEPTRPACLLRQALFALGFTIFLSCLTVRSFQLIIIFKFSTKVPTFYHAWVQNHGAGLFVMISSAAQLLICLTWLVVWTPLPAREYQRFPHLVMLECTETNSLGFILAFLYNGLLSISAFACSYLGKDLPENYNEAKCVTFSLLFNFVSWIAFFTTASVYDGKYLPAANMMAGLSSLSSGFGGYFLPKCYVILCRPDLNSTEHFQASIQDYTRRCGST
T1 sequence (Q923K1 21-858): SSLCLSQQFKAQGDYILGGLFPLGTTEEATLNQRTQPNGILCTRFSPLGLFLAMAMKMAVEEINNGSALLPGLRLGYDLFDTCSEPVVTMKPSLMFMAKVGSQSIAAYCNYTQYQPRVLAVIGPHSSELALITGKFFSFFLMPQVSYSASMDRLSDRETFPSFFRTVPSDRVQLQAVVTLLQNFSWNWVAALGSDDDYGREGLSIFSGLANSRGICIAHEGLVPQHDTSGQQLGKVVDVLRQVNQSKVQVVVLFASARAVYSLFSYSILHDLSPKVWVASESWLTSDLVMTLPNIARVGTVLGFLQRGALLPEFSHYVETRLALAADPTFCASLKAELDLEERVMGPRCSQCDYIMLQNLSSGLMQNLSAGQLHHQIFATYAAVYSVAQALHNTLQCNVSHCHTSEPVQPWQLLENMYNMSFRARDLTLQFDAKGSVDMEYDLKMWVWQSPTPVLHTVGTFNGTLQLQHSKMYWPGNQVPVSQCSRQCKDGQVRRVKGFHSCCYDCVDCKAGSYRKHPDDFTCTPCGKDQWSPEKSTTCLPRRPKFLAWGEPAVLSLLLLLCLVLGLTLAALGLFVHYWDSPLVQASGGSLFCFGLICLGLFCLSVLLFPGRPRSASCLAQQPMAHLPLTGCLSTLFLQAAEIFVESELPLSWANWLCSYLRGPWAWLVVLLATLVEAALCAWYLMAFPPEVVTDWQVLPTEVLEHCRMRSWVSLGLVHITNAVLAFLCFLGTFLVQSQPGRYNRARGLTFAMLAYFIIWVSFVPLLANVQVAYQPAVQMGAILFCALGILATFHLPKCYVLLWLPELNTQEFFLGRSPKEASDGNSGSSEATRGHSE
Assay: Calcium assay, hTAS1R1 mutant co-expressed with rTAS1R3
Assay type: cell-based, human, rat

Structure (SMILES) | response to the agonist alone, vs WT (A170W) | EC50 [mM] | Max ∆F/F0 (A170W, GSH) | R1 = mutant EC50/WT EC50 (A170W, GSH)
N[C@@H](CCC(=O)O)C(=O)O [L-Glu, L-glutamic acid, reference compound] | completely suppressed | – | – | –
N[C@@H](CCC(=O)N[C@@H](CS)C(=O)NCC(=O)O)C(=O)O [GSH, γ-L-glutamyl-L-cysteinyl-glycine] | – | 5.29 ± 1.56 | 0.09 ± 0.01 | 2.1
